# Measured values: ChEMBL document CHEMBL1201862, “PubChem BioAssay data set” (2004)
# Active and inactive are the calls of the source.
# Legend:
# Ion channel NompC = Ion channel NompC (Danio rerio, UniProt Q7T1G6); test: Dose response cell-based high-throughput screening assay for agonists of the transient receptor potential channel N1 (TRPN1). [Related pubchem assays (depositor defined):AID1424, AID1448]; type: functional
# Mucolipin-3 = Mucolipin-3 (Homo sapiens, UniProt Q8TDD5); test: Fluorescence counterscreen assay for […] agonists: dose response cell-based high-throughput screening assay to identify agonists of the transient receptor potential channel ML3 (TRPML3). [Related pubchem assays: 1424, 1448 ]; type: functional
# Chain of Mucolipin-3 (Q8TDD5 whole entry): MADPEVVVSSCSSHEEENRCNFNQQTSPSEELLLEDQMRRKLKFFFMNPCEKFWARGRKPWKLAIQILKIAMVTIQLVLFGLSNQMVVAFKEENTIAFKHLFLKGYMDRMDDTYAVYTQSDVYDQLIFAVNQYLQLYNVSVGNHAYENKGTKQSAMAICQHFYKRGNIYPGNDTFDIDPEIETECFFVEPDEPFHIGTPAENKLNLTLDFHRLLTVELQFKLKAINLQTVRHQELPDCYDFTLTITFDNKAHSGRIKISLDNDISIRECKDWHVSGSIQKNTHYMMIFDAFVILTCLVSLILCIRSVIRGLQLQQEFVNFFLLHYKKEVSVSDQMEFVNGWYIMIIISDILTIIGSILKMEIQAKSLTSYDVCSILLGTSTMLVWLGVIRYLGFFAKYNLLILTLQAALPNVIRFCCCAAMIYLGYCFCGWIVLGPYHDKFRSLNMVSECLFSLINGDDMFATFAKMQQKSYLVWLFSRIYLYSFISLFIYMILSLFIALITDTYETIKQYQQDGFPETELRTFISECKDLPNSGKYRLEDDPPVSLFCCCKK
# [1] = Luminescence Cell-Based Dose Response HTS to Identify Inhibitors of Luciferase Translation or Activity in H4-C Neuroglioblastoma Cells. [Related pubchem assays: 1813 (Primary HTS), 1827 (Project Summary)]; type: functional
# [2] = Luminescence Cell-Based Dose Response HTS to Identify Activators of Luciferase Translation or Activity in H4-C Neuroglioblastoma Cells. [Related pubchem assays: 1829 (Project Summary), 1814 (Primary HTS)]; type: functional
# [3] = luciferase reporter signal suppression in cells – H4 neuroglioma cells, luminescence, dose response (AID 1990); type: functional, cell-based
# [4] = Luminescence Cell-Based Dose Retest to Confirm Activators of 5'UTR Stem-Loop Driven Alpha-Synuclein mRNA Translation in H4 Neuroglioblastoma Cells. [Related pubchem assays (depositor defined):AID1813, AID1829]; type: functional
# [5] = Luminescence Cell-Based Dose Response HTS to Identify Activators of 5'UTR Stem-Loop Driven Prion Protein mRNA Translation in H4-C Neuroglioblastoma Cells. [Related pubchem assays: 1829 (Project Summary), 1814 (Primary HTS)]; type: functional
# [6] = Luminescence Cell-Based Dose HTS Response to Identify Inhibitors of 5'UTR Stem-Loop Driven Prion Protein mRNA Translation in H4-C Neuroglioblastoma Cells. [Related pubchem assays (depositor defined):AID1814, AID1827]; type: functional
# [7] = Luminescence Cell-Based Dose Response HTS to Identify Inhibitors of 5'UTR Stem-Loop Driven Prion Protein mRNA Translation in H4 Neuroglioblastoma Cells. [Related pubchem assays: 1827 (Project Summary), 1813 (Primary HTS)]; type: functional
# [8] = alpha-synuclein stem-loop luciferase translation blockers – H4 neuroglioma cells, luminescence, confirmation (AID 1988); type: functional, cell-based
# [9] = Luminescence Cell-Based Dose Confirmation HTS to Identify Inhibitors of 5'UTR Stem-Loop Driven Alpha-Synuclein mRNA Translation in H4 Neuroglioblastoma Cells. [Related pubchem assays: 1827 (Project Summary), 1813 (Primary HTS)]; type: functional
# [10] = HEK-293T viability loss after treatment – luminescence, T-cell screen hits, cytotoxicity control for TCR NF-kB inhibitor project, dose response (AID 489026); type: functional, cell-based;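 further: cells exposed to compound about 14 hours before the viability readout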
# [11] = reduction of Shn3 3'UTR-driven luciferase in osteoblasts – cell-based, Clone20 osteoblasts, firefly luciferase, cherry-picked, dose response (AID 624132); type: functional;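 further: firefly luciferase luminescence from reporter carrying the Shn3 3'UTR in osteoblasts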
# [12] = loss of viability in HepG2 cells – cell-based, CellTiter-Glo, cherry-picked, cytotoxicity control for Shn3 inhibitor project, dose response (AID 624134); type: functional
# [13] = non-specific 3'UTR reporter inhibition in Clone20-Shn3RL – cell-based, Renilla luciferase, cherry-picked, counter-screen for Shn3 inhibitor project, dose response (AID 624133); type: functional
# [14] = biological target: DNA damage-inducible transcript 3 protein (Mus musculus, UniProt P35639); type: functional, Cricetulus griseus
# Chain of DNA damage-inducible transcript 3 protein (P35639 whole entry, the tested form may be a part): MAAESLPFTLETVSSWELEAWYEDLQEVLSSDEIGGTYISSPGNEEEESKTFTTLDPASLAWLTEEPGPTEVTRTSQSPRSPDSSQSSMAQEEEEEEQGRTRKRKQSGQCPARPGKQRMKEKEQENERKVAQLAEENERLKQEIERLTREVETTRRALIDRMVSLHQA
# [15] = biological target: Disintegrin and metalloproteinase domain-containing protein 17 (Homo sapiens, UniProt P78536); test: exosite inhibitors of ADAM17, dose response, biochemical (AID 743260)
# [16] = inhibition of ADAM10 peptide cleavage – biochemical, FRET peptide substrate, recombinant human ADAM10, selectivity assay for ADAM17 exosite inhibitor project, dose response (AID 743259);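 further: ADAM10 enzyme cleaving a FRET peptide substrate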
# [17] = biological target: Sphingosine 1-phosphate receptor 5 (Homo sapiens, UniProt Q9H228); test: (§1) Late-stage fluorescence-based dose-response cell-based assay to identify agonists of the Sphingosine 1-Phosphate Receptor 4 (S1P4): Sphingosine 1-Phosphate Receptor 5 (S1P5) counterscreen assay. [Related pubchem assays (depositor defined):AID1509, AID1523, AID1563, AID1686, AID1701, AID1801, AID463107, AID463225, AID504400]; type: functional
# [18] = biological target: Sphingosine 1-phosphate receptor 1 (Homo sapiens, UniProt P21453); test: as §1, with “1 (S1P1)” for “5 (S1P5)”; type: functional
# Chain of Sphingosine 1-phosphate receptor 1 (P21453 whole entry): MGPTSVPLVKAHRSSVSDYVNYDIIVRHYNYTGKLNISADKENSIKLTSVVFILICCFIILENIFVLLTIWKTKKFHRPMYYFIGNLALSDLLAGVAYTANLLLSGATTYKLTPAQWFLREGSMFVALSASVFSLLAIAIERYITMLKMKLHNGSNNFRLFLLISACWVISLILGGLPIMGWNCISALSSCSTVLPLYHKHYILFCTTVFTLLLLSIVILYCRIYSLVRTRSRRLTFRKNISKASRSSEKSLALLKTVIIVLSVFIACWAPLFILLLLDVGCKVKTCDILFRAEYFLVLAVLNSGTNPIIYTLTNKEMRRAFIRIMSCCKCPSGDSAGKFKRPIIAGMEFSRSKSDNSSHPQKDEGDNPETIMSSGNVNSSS
# [19] = biological target: Sphingosine 1-phosphate receptor 2 (Homo sapiens, UniProt O95136); test: as §1, with “2 (S1P2)” for “5 (S1P5)”; type: functional
# Chain of Sphingosine 1-phosphate receptor 2 (O95136 whole entry): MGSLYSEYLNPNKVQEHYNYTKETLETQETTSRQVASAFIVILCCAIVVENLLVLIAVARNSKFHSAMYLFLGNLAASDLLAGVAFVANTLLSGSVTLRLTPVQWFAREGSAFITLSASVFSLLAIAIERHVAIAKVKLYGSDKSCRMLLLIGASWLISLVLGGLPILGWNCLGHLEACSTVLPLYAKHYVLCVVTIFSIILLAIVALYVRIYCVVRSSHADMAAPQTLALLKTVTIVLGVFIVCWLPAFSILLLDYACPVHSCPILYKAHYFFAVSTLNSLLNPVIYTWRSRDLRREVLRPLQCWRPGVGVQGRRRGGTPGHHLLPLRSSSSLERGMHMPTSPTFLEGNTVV
# [20] = biological target: Sphingosine 1-phosphate receptor 3 (Homo sapiens, UniProt Q99500); test: as §1, with “3 (S1P3)” for “5 (S1P5)”; type: functional
# Chain of Sphingosine 1-phosphate receptor 3 (Q99500 whole entry): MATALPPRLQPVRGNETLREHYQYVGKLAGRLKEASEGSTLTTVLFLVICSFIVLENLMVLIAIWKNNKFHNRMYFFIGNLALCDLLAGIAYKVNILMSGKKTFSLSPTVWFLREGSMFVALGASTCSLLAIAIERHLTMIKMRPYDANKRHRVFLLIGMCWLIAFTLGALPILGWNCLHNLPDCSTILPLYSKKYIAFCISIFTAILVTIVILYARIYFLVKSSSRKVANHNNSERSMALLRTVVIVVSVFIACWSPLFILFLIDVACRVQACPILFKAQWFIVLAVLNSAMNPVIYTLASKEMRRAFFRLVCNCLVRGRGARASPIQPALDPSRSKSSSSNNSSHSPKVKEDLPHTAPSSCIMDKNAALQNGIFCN
# [21] = biological target: T1, G-protein coupled receptor 35 (Homo sapiens, UniProt Q9HC97); test: SAR analysis of Agonists of the GPR35 Receptor using an Image-Based Assay - Set 4. [Related pubchem assays (depositor defined):AID2013, AID2026]; type: functional
# T1 sequence (Q9HC97 whole entry): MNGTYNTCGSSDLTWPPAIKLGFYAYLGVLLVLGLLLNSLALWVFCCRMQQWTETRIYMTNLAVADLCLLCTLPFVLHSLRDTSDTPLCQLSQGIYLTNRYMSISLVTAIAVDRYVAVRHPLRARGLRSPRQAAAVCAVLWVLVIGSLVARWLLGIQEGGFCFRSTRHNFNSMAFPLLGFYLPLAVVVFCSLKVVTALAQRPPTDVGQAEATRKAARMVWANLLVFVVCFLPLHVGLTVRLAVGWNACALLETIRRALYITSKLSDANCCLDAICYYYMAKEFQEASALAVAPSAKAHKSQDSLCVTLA
# Cannabinoid receptor 1 [22] = biological target: T2, Cannabinoid receptor 1 (Homo sapiens, UniProt P21554); test: SAR analysis of agonists of the Cannabinoid Receptor 1 using an Image-Based Assay - Set 4. [Related pubchem assays (depositor defined):AID2013, AID2026]; type: functional
# T2 sequence (P21554 whole entry): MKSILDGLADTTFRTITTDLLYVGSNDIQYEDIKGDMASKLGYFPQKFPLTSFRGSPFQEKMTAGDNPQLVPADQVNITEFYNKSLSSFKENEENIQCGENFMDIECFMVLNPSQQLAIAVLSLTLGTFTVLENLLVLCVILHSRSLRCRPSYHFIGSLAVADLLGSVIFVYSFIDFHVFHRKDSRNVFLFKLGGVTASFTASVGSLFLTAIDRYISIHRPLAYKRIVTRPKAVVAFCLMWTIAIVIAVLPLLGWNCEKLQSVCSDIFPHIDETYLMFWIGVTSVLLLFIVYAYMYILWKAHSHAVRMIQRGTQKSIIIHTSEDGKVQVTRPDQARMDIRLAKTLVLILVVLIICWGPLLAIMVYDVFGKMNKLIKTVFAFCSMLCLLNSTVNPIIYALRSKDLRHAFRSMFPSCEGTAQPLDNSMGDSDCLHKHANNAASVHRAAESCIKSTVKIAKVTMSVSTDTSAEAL
# [23] = biological target: T1, G-protein coupled receptor 35; test: SAR analysis of Antagonists of the GPR35 Receptor using an Image-Based Assay - Set 6. [Related pubchem assays (depositor defined):AID2013, AID2026]; type: functional
# Cannabinoid receptor 1 [24] = biological target: T2, Cannabinoid receptor 1; test: SAR analysis of antagonists of the Cannabinoid Receptor 1 using an Image-Based Assay - Set 4. [Related pubchem assays (depositor defined):AID2013, AID2026]; type: functional
# [25] = biological target: G-protein coupled receptor 55 (Homo sapiens, UniProt Q9Y2T6); test: SAR Analysis of Selective Antagonists of GPR55 using an Image-Based Assay - Set 4. [Related pubchem assays (depositor defined):AID2013, AID2026]; type: functional;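 further: antagonism of response to 5 µM lysophosphatidylinositol agonist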
# Chain of G-protein coupled receptor 55 (Q9Y2T6 whole entry): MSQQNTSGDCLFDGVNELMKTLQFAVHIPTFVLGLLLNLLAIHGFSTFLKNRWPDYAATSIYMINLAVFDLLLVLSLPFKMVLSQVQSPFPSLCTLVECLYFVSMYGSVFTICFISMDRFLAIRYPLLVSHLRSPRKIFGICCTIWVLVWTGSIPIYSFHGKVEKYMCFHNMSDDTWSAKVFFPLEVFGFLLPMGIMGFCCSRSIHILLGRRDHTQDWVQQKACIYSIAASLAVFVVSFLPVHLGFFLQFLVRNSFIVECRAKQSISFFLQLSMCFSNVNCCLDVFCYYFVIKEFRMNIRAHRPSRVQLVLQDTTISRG
# Cannabinoid receptor 2 [26] = biological target: T3, Cannabinoid receptor 2 (Homo sapiens, UniProt P34972); test: SAR analysis of antagonists of the Cannabinoid Receptor 2 using an Image-Based Assay - Set 3. [Related pubchem assays (depositor defined):AID2013, AID2026]; type: functional
# T3 sequence (P34972 whole entry): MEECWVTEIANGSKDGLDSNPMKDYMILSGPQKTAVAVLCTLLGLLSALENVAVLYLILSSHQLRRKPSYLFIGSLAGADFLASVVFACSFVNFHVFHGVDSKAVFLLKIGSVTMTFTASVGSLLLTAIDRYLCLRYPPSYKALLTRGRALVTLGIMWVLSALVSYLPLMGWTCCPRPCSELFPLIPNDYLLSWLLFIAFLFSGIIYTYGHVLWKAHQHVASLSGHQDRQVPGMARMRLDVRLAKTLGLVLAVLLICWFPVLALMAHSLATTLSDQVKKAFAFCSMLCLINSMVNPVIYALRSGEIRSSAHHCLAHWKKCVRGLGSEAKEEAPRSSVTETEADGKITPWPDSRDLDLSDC
# Cannabinoid receptor 2 [27] = biological target: T3, Cannabinoid receptor 2; test: SAR analysis of agonists of the Cannabinoid Receptor 2 using an Image-Based Assay - Set 3. [Related pubchem assays (depositor defined):AID2013, AID2026]; type: functional
# Chain of Ion channel NompC (Q7T1G6 whole entry): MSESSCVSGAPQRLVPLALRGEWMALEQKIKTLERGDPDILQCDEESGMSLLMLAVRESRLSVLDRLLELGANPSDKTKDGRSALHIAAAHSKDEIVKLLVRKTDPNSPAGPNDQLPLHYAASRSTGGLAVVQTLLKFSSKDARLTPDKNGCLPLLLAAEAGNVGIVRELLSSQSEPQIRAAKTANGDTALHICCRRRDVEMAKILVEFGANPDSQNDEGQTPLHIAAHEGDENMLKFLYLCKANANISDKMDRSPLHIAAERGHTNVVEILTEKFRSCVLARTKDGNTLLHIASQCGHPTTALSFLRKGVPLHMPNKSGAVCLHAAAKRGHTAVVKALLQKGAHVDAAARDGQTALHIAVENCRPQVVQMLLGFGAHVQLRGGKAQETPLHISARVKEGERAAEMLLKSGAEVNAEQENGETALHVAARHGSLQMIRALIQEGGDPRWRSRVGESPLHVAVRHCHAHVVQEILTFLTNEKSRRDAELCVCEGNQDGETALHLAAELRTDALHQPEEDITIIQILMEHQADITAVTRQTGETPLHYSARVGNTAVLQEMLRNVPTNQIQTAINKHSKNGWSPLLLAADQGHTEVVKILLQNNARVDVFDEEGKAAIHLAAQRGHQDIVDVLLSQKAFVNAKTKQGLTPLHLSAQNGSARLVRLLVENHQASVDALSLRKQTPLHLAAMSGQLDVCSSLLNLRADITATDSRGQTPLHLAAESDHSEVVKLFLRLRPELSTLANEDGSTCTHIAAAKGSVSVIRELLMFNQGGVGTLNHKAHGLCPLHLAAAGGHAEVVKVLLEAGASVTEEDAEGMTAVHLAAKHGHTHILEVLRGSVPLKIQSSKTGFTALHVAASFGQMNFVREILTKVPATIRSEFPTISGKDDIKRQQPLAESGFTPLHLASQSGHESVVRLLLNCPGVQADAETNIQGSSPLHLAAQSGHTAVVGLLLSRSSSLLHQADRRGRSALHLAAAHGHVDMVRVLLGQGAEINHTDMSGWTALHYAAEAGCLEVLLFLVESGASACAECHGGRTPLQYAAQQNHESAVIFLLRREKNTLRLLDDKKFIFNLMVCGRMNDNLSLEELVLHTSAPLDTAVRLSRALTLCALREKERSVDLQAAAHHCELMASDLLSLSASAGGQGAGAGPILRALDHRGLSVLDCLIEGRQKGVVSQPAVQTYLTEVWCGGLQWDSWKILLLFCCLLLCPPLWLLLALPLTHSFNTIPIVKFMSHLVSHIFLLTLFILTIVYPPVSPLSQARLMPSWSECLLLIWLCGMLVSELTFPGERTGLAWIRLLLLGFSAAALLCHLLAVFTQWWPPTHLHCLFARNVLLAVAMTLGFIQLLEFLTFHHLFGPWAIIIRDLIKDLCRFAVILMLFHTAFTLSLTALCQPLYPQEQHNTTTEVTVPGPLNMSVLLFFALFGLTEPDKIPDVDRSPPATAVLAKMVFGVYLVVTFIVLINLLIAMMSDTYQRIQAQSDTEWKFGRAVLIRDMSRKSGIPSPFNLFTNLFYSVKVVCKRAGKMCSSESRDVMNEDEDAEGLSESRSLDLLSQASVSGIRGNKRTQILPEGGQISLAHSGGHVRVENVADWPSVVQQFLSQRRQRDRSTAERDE
structure (smiles),measurement,setting,value
COCc1nnc(SCC(=O)NCc2ccccc2)n1-c1ccccc1,EC50,Ion channel NompC,> 29.9 µM (inactive)
same,EC50,Mucolipin-3,> 29.9 µM (not active)
CCCOc1ccccc1C1CC(=O)Nc2cc3c(cc21)OCO3 (centres undefined),EC50,[1],2.97 µM (active)
same,EC50,[2],2.97 µM (inconclusive)
same,EC50,[3],3.65 µM (inconclusive)
same,EC50,[4],35.8 µM (inconclusive)
same,EC50,[5],2.4 µM (inconclusive)
same,EC50,[6],2.4 µM (active)
same,EC50,[7],> 120 µM (not active)
same,EC50,[8],0.158 µM (active)
same,EC50,[9],35.8 µM (active)
same,IC50,[10],60.1 µM (inactive)
same,AC50,[11],5.72 µM (active)
same,AC50,[12],> 70 µM (inactive)
same,AC50,[13],15.3 µM (active)
Sc1nnc(C2CCCCC2)n1/N=C/C=C/c1ccccc1,Absolute IC50 (CHOP),[14],10 µM
same,IC50,[15],> 69.5 µM (inactive)
same,IC50,[16],13.7 µM (inactive)
Cc1ccc(OCCOc2c(Cl)cc(Cl)cc2Cl)c([N+](=O)[O-])n1,EC50,[17],> 50 µM (inactive)
same,EC50,[18],> 50 µM (inactive)
same,EC50,[19],> 50 µM (inactive)
same,EC50,[20],> 50 µM (inactive)
N=c1c(C(=O)NC2CCCCC2)cc2c(=O)n3ccccc3nc2n1C1CCCC1,EC50,[21],> 32 µM (inactive)
same,EC50,Cannabinoid receptor 1 [22],> 32 µM (inactive)
same,IC50,[23],> 32 µM (inactive)
same,IC50,Cannabinoid receptor 1 [24],> 32 µM (inactive)
same,IC50,[25],29 µM (inactive)
same,IC50,Cannabinoid receptor 2 [26],> 32 µM (inactive)
same,EC50,Cannabinoid receptor 2 [27],> 32 µM (inactive)
